The record followed here is patent publication US10766869B2, “Triazoles for the treatment of demyelinating dieases” (Vertex Pharmaceuticals Incorporated, priority 2015, dated 2020).

Assay [1] deals with C57BL/6 mice demyelinated with cuprizone. Put plainly: In vivo mouse cuprizone assay (new myelin, MBP positive / MOG negative area). Particulars: for effect measured as new myelin generated in response to compound treatment compared to control with no added compound: Regimen A (QD or BID for 14 days via oral gavage), various doses; for effect (new myelin generated compared to control): Regimen A, oral gavage. From the text:
Assays for Detecting and Measuring Remyelination Properties of Compounds In Vivo Mouse Cuprizone Assay:
Cuprizone Feeding Protocol:
2 month old female C57BL/6 mice (Stock Number: 000664) were purchased from Jackson Labs and fed for 4-10 months with a 0.2% cuprizone chow (provided by Research Diets, Product # D10020701R, Description AIN-76A Rodent Diet with 0.2% cuprizone) using cuprizone purchased from Sigma (Cat #14690-100G). Chow was provided ad libitum, and refreshed every 4 days to ensure stability of the cuprizone. Mice were maintained on this diet for 4-10 months before initiation of the experiments.
1) 24 hours prior to the start of dosing, 6 to 10 mice were switched from cuprizone chow to normal chow (Picolab rodent diet 20 EXT IRR 5053, irradiated) without added cuprizone. These mice were maintained on normal chow throughout the course of dosing.
2) 6 to 10 mice per group were randomized into new cages such that mice that were housed in one cage during the cuprizone diet were not housed together in one dose group during the study.
3) Mice were dosed with compound in one of two regimens: Regimen A: mice were dosed QD or BID for 14 days via oral gavage. Regimen B: mice were dosed QD or BID for 14 days via IP injection. However, other dosing schedules and/or routes of administration may also be used.
4) On the last day of dosing, dried blood spots were collected at multiple time points following the last dose. Often this was 30 minutes, 2, 6 and 24 hours following the final dose on day 14 via the tail vein.
Perfusion and Sectioning:
1) The day after the last day of dosing, mice were transcardially perfused with 12 ml of PBS (Sigma, P4417) followed by 20 ml of 3.2% paraformaldehyde in PBS (Electron Microscopy Sciences #15714-S). The brains were removed via standard dissection techniques and each was postfixed in 3.2% paraformaldehyde (20 ml) for 24-48 hours at room temperature in sealed scintillation vials.
2) Serial 50 micron sections were collected through the anterior posterior extent of the brain, from just behind the olfactory bulb, through visual cortex using a vibrating microtome, the V-STAR (described in International Publication No. WO 2013/012799 and U.S. Pat. No. 8,967,024 both of which are incorporated herein by reference in their entirety). Sections were collected in phosphate buffered saline (PBS). Vibratome speed was set to 1.1 mm/s and amplitude was set to 0.8 mm.
3) A series of every 24th section was removed for staining yielding 5 sections per brain.
1) Tissue sections were stained using an automated system for processing blots (hereinafter the “blotinator”) (described in WO2011/087646 and U.S. Pat. Nos. 8,337,754 and 8,679,406 each of which is incorporated herein by reference in its entirety). Brain sections were placed in the blotinator plate and bathed in PBS. The blotinator applied primary antibodies (MOG and MBP together) and Hoechst nuclear stain for 12 hours at room temperature with constant shaking.
The following stains were diluted in blocking buffer (described below):
Hoechst nuclear stain (0.5 mg/ml)(bisBenzimide H 33342 trihydrochloride Sigma #33342).
Myelin basic Protein (MBP) antibody (Abcam Cat # ab7349) was diluted at a 1:750 ratio in blocking buffer).
Myelin Oligodendrocyte Glycoprotein (MOG) (R&D systems Cat # AF2439) was diluted at a 1:250 ratio in blocking buffer.
Antibodies were diluted in blocking buffer, which consisted of 0.3% Triton X-100 (Sigma Cat #234729), 0.02% Sodium Azide (Sigma Cat # S2002) and 8% fetal bovine serum in PBS (Sigma Cat # F2442).
2) The blotinator washed the samples 4 times for 5 minutes each with a wash buffer (0.2% Triton X-100 in PBS).
3) The blotinator applied secondary antibodies diluted in blocking buffer and incubated them for 2 hours with constant shaking.
Alexa 488 donkey anti-rat secondary (Life technologies Cat # A-21208) was diluted at 1:1000 in blocking buffer. […]

The subject of assay [2] is primary rat mixed cortical cells. Put plainly: In vitro myelination assay (MBP positive myelin strands, fold myelin pixels above background). It counts as cell-based. Particulars: Rattus norvegicus; for fold induction at 1 µM: 1.0 μM compound; for fold induction at 10 µM: 10.0 μM compound. In short, it runs like this: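 P1 rat cortical cells (neurons, OPCs, oligodendrocytes, astrocytes, microglia) were cultured 14 days at 37 °C with compound, with half-medium changes containing 1× compound on days 6 and 10. Fixed cells were immunostained for MBP and imaged at 10×. Total MBP myelin pixels per well were expressed as fold above no-compound baseline at 1.0 μM and 10.0 μM.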

The mark [3] stands for this setting: relative to baseline of no added compound, read-out: Fold myelin pixels above background, 1.0 μM.
The mark [4] stands for this setting: relative to baseline of no added compound, read-out: Fold myelin pixels above background, 10.0 μM.
[5] abbreviates: read-out: Fold myelin pixels above background relative to baseline of no added compound.

SMILES strings stand for the structures. Where two headings read alike, the source gives them in different places. Some results are limits rather than exact numbers.

For the molecule `Cc1cc(Nc2ncn(-c3cc(F)cc(F)c3)n2)cc(N2CCN(C3COC3)CC2)c1` [Compound 33, 1-(3,5-difluorophenyl)-N-[3-methyl-5-[4-(oxetan-3-yl)piperazin-1-yl]phenyl]-1,2,4-triazol-3-amine], in assay [1], the “effect measured as new myelin generated in response to compound treatment compared to control with no added compound” value was “positive effect”. The “effect (new myelin generated compared to control)” value in assay [1] (10 mpk), in assay [1] (25 mpk) and in assay [1] (50 mpk) was “positive effect” throughout. Besides, in assay [2] (setting [3]), the fold induction at 1 µM lay within 100 to 1000. Further, in assay [2] (setting [4]), the fold induction at 10 µM was ≤ 1.

With `CCc1cc(Nc2ncn(-c3cnccn3)n2)cc(N2CCN(C3COC3)CC2)c1` [Compound 48, N-[3-ethyl-5-[4-(oxetan-3-yl)piperazin-1-yl]phenyl]-1-pyrazin-2-yl-1,2,4-triazol-3-amine], the “effect measured as new myelin generated in response to compound treatment compared to control with no added compound” value in assay [1] is “positive effect”. Moreover, the “effect (new myelin generated compared to control)” value in assay [1] (30 mpk), in assay [1] (50 mpk) and in assay [1] (100 mpk) was “positive effect” each time. The fold induction at 1 µM in assay [2] (setting [3]) fell in the range of 100 to 1000. In addition, the fold induction at 10 µM in assay [2] (setting [4]) lay in the range of 100 to 1000.

Consider `Cc1cc(Nc2ncn(-c3cc(F)cc(F)c3)n2)cc(N2CC(C)(C#N)C2)c1` [Compound 1076, 1-[3-[[1-(3,5-difluorophenyl)-1,2,4-triazol-3-yl]amino]-5-methyl-phenyl]-3-methyl-azetidine-3-carbonitrile], for which, in assay [2] (setting [5]), the fold induction at 1 µM is 10 to 100 and the fold induction at 10 µM is ≤ 1.

With `Cc1cc(Nc2ncn(-c3cc(F)cc(F)c3)n2)cc(N2CCCC2CN2CCCC2CO)c1` (stereo not shown) [Compound 1077, [1-[[1-[3-[[1-(3,5-difluorophenyl)-1,2,4-triazol-3-yl]amino]-5-methyl-phenyl]pyrrolidin-2-yl]methyl]pyrrolidin-2-yl]methanol], in assay [2] (setting [5]), the fold induction at 1 µM lay in the range of 1 to 10 and the fold induction at 10 µM was ≤ 1.

Turning to `Cc1cc(Nc2ncn(-c3cc(F)cc(F)c3)n2)cc(N2CCN(CC(O)CN(C)C)CC2)c1` (stereo not shown) [Compound 1078, 1-[4-[3-[[1-(3,5-difluorophenyl)-1,2,4-triazol-3-yl]amino]-5-methyl-phenyl]piperazin-1-yl]-3-(dimethylamino)propan-2-ol], in assay [2] (setting [5]), the fold induction at 1 µM was 1 to 10 and the fold induction at 10 µM was ≤ 1.

As for `Cc1cc(Nc2ncn(-c3cc(F)cc(F)c3)n2)cc(N2CC(F)(CO)C2)c1` [Compound 1079, [1-[3-[[1-(3,5-difluorophenyl)-1,2,4-triazol-3-yl]amino]-5-methyl-phenyl]-3-fluoro-azetidin-3-yl]methanol], in assay [2] (setting [5]), the fold induction at 1 µM was in the range of 10 to 100 and the fold induction at 10 µM is ≤ 1.

For the molecule `[2H]c1nc(Nc2cc(C)cc(N3CCN(C4COC4)CC3)c2)nn1-c1cc(F)cc(F)c1` [Compound 1080, 5-deuterio-1-(3,5-difluorophenyl)-N-[3-methyl-5-[4-(oxetan-3-yl)piperazin-1-yl]phenyl]-1,2,4-triazol-3-amine], in assay [2] (setting [5]), the fold induction at 1 µM was 10 to 100 and the fold induction at 10 µM lay in the range of 10 to 100.

Take `Cc1cc(Nc2ncn(-c3cc(F)cc(F)c3)n2)cc(N2CC3(C2)CN(C(C)C)C3)c1` [Compound 1081, 1-(3,5-difluorophenyl)-N-[3-(2-isopropyl-2,6-diazaspiro[3.3]heptan-6-yl)-5-methyl-phenyl]-1,2,4-triazol-3-amine]: in assay [2] (setting [5]), the fold induction at 1 µM fell in the range of 1 to 10 and the fold induction at 10 µM lay in the range of 1 to 10.

Consider `Cc1cc(NCCN2CCOCC2C)cc(Nc2ncn(-c3cc(F)cc(F)c3)n2)c1` (stereo not shown) [Compound 1082, N1-[1-(3,5-difluorophenyl)-1,2,4-triazol-3-yl]-5-methyl-N3-[2-(3-methylmorpholin-4-yl)ethyl]benzene-1,3-diamine], for which, in assay [2] (setting [5]), the fold induction at 1 µM is 10 to 100 and the fold induction at 10 µM is ≤ 1.

With `Cc1cc(Nc2ncn(-c3cc(F)cc(F)c3)n2)cc(N2CCC(C3CCOC3)C2)c1` (stereo not shown) [Compound 1083, 1-(3,5-difluorophenyl)-N-[3-methyl-5-(3-tetrahydrofuran-3-ylpyrrolidin-1-yl)phenyl]-1,2,4-triazol-3-amine], in assay [2] (setting [5]), the fold induction at 1 µM fell in the range of 1 to 10 and the fold induction at 10 µM was ≤ 1.

With `Cc1cc(NCC2CN(C(=O)OC(C)(C)C)C2)cc(Nc2ncn(-c3cc(F)cc(F)c3)n2)c1` [Compound 1084, tert-butyl 3-[[3-[[1-(3,5-difluorophenyl)-1,2,4-triazol-3-yl]amino]-5-methyl-anilino]methyl]azetidine-1-carboxylate], in assay [2] (setting [5]), the fold induction at 1 µM was 10 to 100 and the fold induction at 10 µM fell in the range of 1 to 10.

In the case of `Cc1cc(Nc2ncn(-c3ccccc3)n2)c(F)c(N2CCN(C3COC3)CC2)c1` [Compound 1085, N-[2-fluoro-5-methyl-3-[4-(oxetan-3-yl)piperazin-1-yl]phenyl]-1-phenyl-1,2,4-triazol-3-amine], in assay [2] (setting [5]), the fold induction at 1 µM lay in the range of 10 to 100 and the fold induction at 10 µM is 10 to 100.

Turning to `[2H]C([2H])([2H])C([2H])(N1CCN(c2cc(C)cc(Nc3ncn(-c4ccccc4)n3)c2)CC1)C([2H])([2H])[2H]` [Compound 1086, N-[3-methyl-5-[4-[1,2,2,2-tetradeuterio-1-(trideuteriomethyl)ethyl]piperazin-1-yl]phenyl]-1-phenyl-1,2,4-triazol-3-amine], in assay [2] (setting [5]), the fold induction at 1 µM fell in the range of 10 to 100 and the fold induction at 10 µM was ≤ 1.

In the case of `Cc1cc(Nc2ncn(-c3cc(F)cc(F)c3)n2)cc(N2CCOC(COCC3CC3)C2)c1` (stereo not shown) [Compound 1087, N-[3-[2-(cyclopropylmethoxymethyl)morpholin-4-yl]-5-methyl-phenyl]-1-(3,5-difluorophenyl)-1,2,4-triazol-3-amine], in assay [2] (setting [5]), the fold induction at 1 µM is 1 to 10 and the fold induction at 10 µM lay within 1 to 10.

`[2H]C1(N2CCN(c3cc(C)cc(Nc4ncn(-c5cc(F)cc(F)c5)n4)c3)CC2)COC1` [Compound 1110, N-[3-[4-(3-deuteriooxetan-3-yl)piperazin-1-yl]-5-methyl-phenyl]-1-(3,5-difluorophenyl)-1,2,4-triazol-3-amine]: in assay [2] (setting [5]), the fold induction at 1 µM fell in the range of 1000 to 10000 and the fold induction at 10 µM is 1 to 10.

Consider `[2H]C1([2H])N(C)C([2H])([2H])C([2H])([2H])N(c2cc(C)cc(Nc3ncn(-c4ccccc4)n3)c2)C1([2H])[2H]` [Compound 1111, N-[3-methyl-5-(2,2,3,3,5,5,6,6-octadeuterio-4-methyl-piperazin-1-yl)phenyl]-1-phenyl-1,2,4-triazol-3-amine], for which, in assay [2] (setting [5]), the fold induction at 1 µM lay in the range of 100 to 1000 and the fold induction at 10 µM is ≤ 1.
